Tested on: TRPV 1 channels
Test: Calcium assay (Fluo-4) in HEK-TRPV1 cells, dose response comparison
Assay type: cell-based
Details: Fluo-4 loaded, 1 mM external calcium chloride, 0-20 seconds baseline, compound added at 20 seconds, synthesized vs Sigma-sourced CBD (FIGS. 1A-1D)
Procedure: Molecular Pharmacology, 2016, volume 90, pages 300-308) HEK 293 cells with TRPV1 channels have been used as model systems (P. Geppetti and M. Trevisani, Activation and sensitisation of the vanilloid receptor: role in gastrointestinal inflammation and function, British Journal of Pharmacology, 2004, volume 141, pages 1313-1320);
HEK TRexTRPV1 cultured in DMEM, 10% Fetal Bovine Serum, 2 mM L-glutamine, 10 microgramg/ml Blasticidin (Calbiochem, San Diego Calif.), […] Zeocin (InvivoGen, San Diego Calif.), followed by inducing indicated transgene expression using 1 microgram/ml Tetracycline for 16-24 hrs. Comparisons made to untransfected HEK cells or HEKTRexTRPV1 with or without induction.
Cells washed and incubated with 0.2 micromolar Fluo-4 [54] for 30 minutes at 37° C. in a standard modified Ringer's solution of the following composition (in mM): NaCl 145, KCl 2.8, CsCl 10, CaCl2 10, MgCl2 2, glucose 10, Hepes-NaOH 10, pH 7.4, 330 mOsm. Cells transferred to 96-well plates at 50,000 cells/well and stimulated as indicated. Calcium signals acquired using a Flexstation 3 (Molecular Devices, Sunnydale, USA). Data are analyzed according to the methods in I. Díaz-Franulic, J. Caceres-Molina, R. V. Sepulveda, F. Gonzalez-Nilo, R. Latorre, Structure-Driven Pharmacology of Transient Receptor Potential Channel Vanilloid 1, Molecular Pharmacology, 2016, volume 90, pages 300-8. […]

Compound: C=C(C)[C@@H]1CCC(C)=C[C@H]1c1c(O)cc(CCCCC)cc1O [cannabidiol (11, CBD), Cannabidiol]
- “biological finger print” and dose response on TRPV 1 channels: the same “biological finger print” and dose response

Source: patent US11407724B2, “Process for the production of cannabinoids” (Bessor Pharma, LLC, priority 2018, dated 2022)
